Test [1] relates to BMP-7 protein. As to the kind of experiment: BMP-7 protein expression in NHLF, western blotting (3-1). Format: cell-based, human. The method, then: Normal Human lung fibroblasts (NHLF) were seeded into 6 cm culture dishes at a density of 2×10^5 cells/dish, comprising a control group and six experimental groups (7 dishes in total). The cells were cultured until the next day, and then the mediums were removed. Each group was respectively treated under the following conditions to conduct follow-up experiments: • (1) Control group: cells were cultured in a FGM-2 medium containing 10% serum for 36 hours; • (2) Group i: cells were cultured in a FGM-2 medium containing 1% serum for 36 hours; • (3) Group ii: cells were firstly cultured in a FGM-2 medium containing 1% serum for 12 hours, and then compound (1) was added into the medium to provide a final concentration of 15 μg/ml; thereafter, the cells were cultured for another 24 hours; • (4) Group iii: cells were firstly cultured in a FGM-2 medium containing 1% serum for 12 hours, and then compound (1) was added into the medium to provide a final concentration of 25 μg/ml; thereafter, the cells were cultured for another 24 hours; • (5) Group iv: cells were cultured in a FGM-2 medium containing 1% serum and TGF-β1 (5 ng/ml) for 36 hours; • (6) Group v: cells were firstly cultured in a FGM-2 medium containing 1% serum and TGF-β1 (5 ng/ml) for 12 hours, and then compound (1) was added into the medium to provide a final concentration of 15 μg/ml; thereafter, the cells were cultured for another 24 hours; and • (7) Group vi: cells were firstly cultured in a FGM-2 medium containing 1% serum and TGF-β1 (5 ng/ml) for 12 hours, and then compound (1) was added into the medium to provide a final concentration of 25 μg/ml; thereafter, the cells were cultured for another 24 hours.
Thereafter, the proteins in the cells of each group were extracted, and the expressions of BMP-7 protein, TGF-β protein and α-SMA protein in the NHLF cells of each group were measured with western blotting, wherein the β-actin served as the internal control. The results of the control group served as the basis for calculating the relative expression levels of the other groups.

The test system of test [2] is BMP-7 protein. As to the kind of experiment: BMP-7 protein expression in TGF-β1-induced NHLF, western blotting (Example 4). Format: cell-based, human. The conditions noted are these: uninduced control = 1, TGF-β1-only group A = 0.19. The method, then:
Normal Human lung fibroblasts (NHLF) were seeded into 6 cm culture dishes at a density of 2×10^5 cells/dish, comprising a control group and five experimental groups (6 dishes in total). The cells were cultured until the next day, and then the mediums were removed. Each group was respectively treated under the following conditions to conduct follow-up experiments: • (1) Control group: cells were cultured in a FGM-2 medium containing 1% serum for 36 hours; • (2) Group A: cells were cultured in a FGM-2 medium containing 1% serum and TGF-β1 (5 ng/ml) for 36 hours; • (3) Group B: cells were firstly cultured in a FGM-2 medium containing 1% serum and TGF-β1 (5 ng/ml) for 12 hours, and then compound (1) was added into the medium to provide a final concentration of 15 μg/ml; thereafter, the cells were cultured for another 24 hours; • (4) Group C: cells were firstly cultured in a FGM-2 medium containing 1% serum and TGF-β1 (5 ng/ml) for 12 hours, and then compound (1) was added into the medium to provide a final concentration of 30 μg/ml; thereafter, the cells were cultured for another 24 hours; • (5) Group D: cells were firstly cultured in a FGM-2 medium containing 1% serum and TGF-β1 (5 ng/ml) for 12 hours, and then compound (2) was added into the medium to provide a final concentration of 100 μg/ml; thereafter, the cells were cultured for another 24 hours; and • (6) Group E: cells were firstly cultured in a FGM-2 medium containing 1% serum and TGF-β1 (5 ng/ml) for 12 hours, and then compound (2) was added into the medium to provide a final concentration of 200 μg/ml; thereafter, the cells were cultured for another 24 hours.
Thereafter, the proteins in the cells of each group were extracted, and the expressions of BMP-7 protein, TGF-β protein and p-smad2/3 protein in the NHLF cells of each group were measured with western blotting. The results of the control group served as the basis for calculating the relative expression levels of the other groups.
A general note: A western blot detects proteins with antibodies after separation by electrophoresis.

Each structure is given as a SMILES string.

Turning to `CCCC=C1OC(=O)c2ccccc21` [compound (1)], the “Relative expression level (fold) BMP-7 protein” value in test [1] (Group ii: 1% serum 12 h, then compound (1) 15 μg/ml 24 h, no TGF-β1, 10% serum control = 1, 1% serum group i = 1) is given as 0.91 fold; in test [1] (Group iii: 1% serum 12 h, then compound (1) 25 μg/ml 24 h, no TGF-β1, 10% serum control = 1, 1% serum group i = 1), 0.81 fold; in test [1] (Group v: 1% serum + TGF-β1 5 ng/ml 12 h, then compound (1) 15 μg/ml 24 h, 10% serum control = 1, TGF-β1-only group iv = 0.82), 0.76 fold; in test [1] (Group vi: 1% serum + TGF-β1 5 ng/ml 12 h, then compound (1) 25 μg/ml 24 h, 10% serum control = 1, TGF-β1-only group iv = 0.82), 1.07 fold; in test [2] (Group B: TGF-β1 5 ng/ml 12 h, then compound (1) 15 μg/ml 24 h) it was 0.68 fold; in test [2] (Group C: TGF-β1 5 ng/ml 12 h, then compound (1) 30 μg/ml 24 h) it was 0.31 fold.
